Laboratory results taken from ChEMBL document CHEMBL2311262, “Structure activity relationship studies of tricyclic bispyran sulfone γ-secretase inhibitors” (Bioorg Med Chem Lett, 2013).

What was measured:
[1] = biological target: Gamma-secretase; test: Inhibition of gamma secretase-mediated amyloid beta40 production in HEK293 cells transfected with human APPSOW and APPLON after 5 hrs by sandwich immunoassay; type: cell-based
[2] = biological target: Gamma-secretase; test: Inhibition of gamma secretase-mediated amyloid beta42 production in HEK293 cells transfected with human APPSOW and APPLON after 5 hrs by sandwich immunoassay; type: cell-based
[3] = biological target: Gamma-secretase; test: Inhibition of gamma secretase-mediated amyloid beta40 production in HEK293 cell membranes transfected with human APPSOW and APPLON mutant after 5 hrs by sandwich immunoassay; type: cell-based
[4] = test system: Mus musculus; test: Inhibition of gamma secretase in B6C3F1 mouse assessed as […] in plasma amyloid beta40 production at 10 mg/kg, po measured at 3 hrs; type: functional
[5] = Ratio of drug level in brain to plasma in rat at 6 hrs; type: ADME; settings: read-out: BPR

Structure (SMILES) | IC50 [1] [nM] | IC50 [2] [nM] | IC50 [3] [nM] | inhibition in vivo at 10 mg/kg [4] [%] | Kp at 6 h [5]
CS(=O)(=O)CC[C@@H]1OCC[C@@]2(S(=O)(=O)c3ccc(Br)cc3)c3c(F)ccc(F)c3OC[C@@H]12 | 2.5 | 0.6 | 2.9 | – | –
O=S(=O)(CC[C@@H]1OCC[C@@]2(S(=O)(=O)c3ccc(Cl)cc3)c3c(F)ccc(F)c3OC[C@@H]12)c1ncn[nH]1 | 8.9 | 4.7 | 2.1 | 30 | –
O=S(=O)(CC[C@@H]1OCC[C@@]2(S(=O)(=O)c3ccc(Cl)cc3)c3c(F)ccc(F)c3OC[C@@H]12)C(F)(F)F | 13 | 4.4 | 7.4 | – | –
O=C(O)CS(=O)(=O)CC[C@@H]1OCC[C@@]2(S(=O)(=O)c3ccc(Cl)cc3)c3c(F)ccc(F)c3OC[C@@H]12 | 38 | 22 | 2.7 | 47 | 0.1
CCCS(=O)(=O)CC[C@@H]1OCC[C@@]2(S(=O)(=O)c3ccc(Cl)cc3)c3c(F)ccc(F)c3OC[C@@H]12 | 11 | 5 | 6.8 | – | –
COc1ccc(S(=O)(=O)[C@@]23CCO[C@@H](CCS(C)(=O)=O)[C@@H]2COc2c(F)ccc(F)c23)cc1 | – | – | 360 | – | –
CS(=O)(=O)CC[C@@H]1OCC[C@@]2(S(=O)(=O)c3ccc(C#N)cc3)c3c(F)ccc(F)c3OC[C@@H]12 | 25 | 8.9 | 66 | – | –
CCS(=O)(=O)CC[C@@H]1OCC[C@@]2(S(=O)(=O)c3ccc(Cl)cc3)c3c(F)ccc(F)c3OC[C@@H]12 | 5 | 2 | 3 | – | –
O=S(=O)(CC[C@@H]1OCC[C@@]2(S(=O)(=O)c3ccc(Cl)cc3)c3c(F)ccc(F)c3OC[C@@H]12)c1ncc[nH]1 | 1.5 | 1.8 | 1.4 | – | –
O=S(=O)(CCCO)CC[C@@H]1OCC[C@@]2(S(=O)(=O)c3ccc(Cl)cc3)c3c(F)ccc(F)c3OC[C@@H]12 | – | – | 4.5 | – | –
